As a reminder, the IC50 is the concentration at which inhibition is half-maximal.

The nature of data set [1]: Dog LM (liver microsome) assay. The settings on record: Table 3a; predicted clearance as percent of liver blood flow, 1 μM, 1 mg/ml microsomal protein. The format is in vitro ADME. The procedure:
Dog LM (Liver Microsome) Assay
The metabolic degradation of the test compound is assayed at 37° C. with pooled liver microsomes from dogs (Beagle). The final incubation volume of 100 μl per time point contains TRIS buffer pH 7.6 at RT (0.1 M), magnesium chloride (5 mM), microsomal protein (1 mg/ml) and the test compound at a final concentration of 1 μM. Following a short preincubation period at 37° C., the reactions were initiated by addition of beta-nicotinamide adenine dinucleotide phosphate, reduced form (NADPH, 1 mM) and terminated by transferring an aliquot into solvent after different time points. Additionally, the NADPH-independent degradation was monitored in incubations without NADPH, terminated at the last time point. The [%] remaining test compound after NADPH independent incubation is reflected by the parameter c (control) (metabolic stability). The quenched incubations are pelleted by centrifugation (10000 g, 5 min). An aliquot of the supernatant is assayed by LC-MS/MS for the amount of parent compound. The half-life (t½ INVITRO) is determined by the slope of the semilogarithmic plot of the concentration-time profile. The intrinsic clearance (CL_[…]) is calculated by considering the amount of protein in the incubation: CL_[…] [μl/min/mg protein]=(Ln 2/(half-life [min]*protein content [mg/ml]))*1000. For better across species comparison the predicted clearance is expressed as percent of the liver blood flow [% QH] in the individual species. In general, high stability (corresponding to low % QH) of the compounds across species is desired.

The target in data set [2] is JAK2 (Homo sapiens (Human), UniProt O60674). The data set can be described thus: Biochemical kinase assay (33P-ATP filter-binding), JAK2. An excerpt: (§1) Biochemical Kinase Assay Protocol (JAK)
(§2) Reaction Procedure: • 1. […] Detected kinase activity by filter-binding method.

The target of data set [3] is JAK1 (Homo sapiens (Human), UniProt P23458). Briefly: Biochemical kinase assay (33P-ATP filter-binding), JAK1.
Description: as §1, §2

Read-outs that look alike come from different tables or passages of the source.

JAK2, sequence (O60674 whole entry, species assumed): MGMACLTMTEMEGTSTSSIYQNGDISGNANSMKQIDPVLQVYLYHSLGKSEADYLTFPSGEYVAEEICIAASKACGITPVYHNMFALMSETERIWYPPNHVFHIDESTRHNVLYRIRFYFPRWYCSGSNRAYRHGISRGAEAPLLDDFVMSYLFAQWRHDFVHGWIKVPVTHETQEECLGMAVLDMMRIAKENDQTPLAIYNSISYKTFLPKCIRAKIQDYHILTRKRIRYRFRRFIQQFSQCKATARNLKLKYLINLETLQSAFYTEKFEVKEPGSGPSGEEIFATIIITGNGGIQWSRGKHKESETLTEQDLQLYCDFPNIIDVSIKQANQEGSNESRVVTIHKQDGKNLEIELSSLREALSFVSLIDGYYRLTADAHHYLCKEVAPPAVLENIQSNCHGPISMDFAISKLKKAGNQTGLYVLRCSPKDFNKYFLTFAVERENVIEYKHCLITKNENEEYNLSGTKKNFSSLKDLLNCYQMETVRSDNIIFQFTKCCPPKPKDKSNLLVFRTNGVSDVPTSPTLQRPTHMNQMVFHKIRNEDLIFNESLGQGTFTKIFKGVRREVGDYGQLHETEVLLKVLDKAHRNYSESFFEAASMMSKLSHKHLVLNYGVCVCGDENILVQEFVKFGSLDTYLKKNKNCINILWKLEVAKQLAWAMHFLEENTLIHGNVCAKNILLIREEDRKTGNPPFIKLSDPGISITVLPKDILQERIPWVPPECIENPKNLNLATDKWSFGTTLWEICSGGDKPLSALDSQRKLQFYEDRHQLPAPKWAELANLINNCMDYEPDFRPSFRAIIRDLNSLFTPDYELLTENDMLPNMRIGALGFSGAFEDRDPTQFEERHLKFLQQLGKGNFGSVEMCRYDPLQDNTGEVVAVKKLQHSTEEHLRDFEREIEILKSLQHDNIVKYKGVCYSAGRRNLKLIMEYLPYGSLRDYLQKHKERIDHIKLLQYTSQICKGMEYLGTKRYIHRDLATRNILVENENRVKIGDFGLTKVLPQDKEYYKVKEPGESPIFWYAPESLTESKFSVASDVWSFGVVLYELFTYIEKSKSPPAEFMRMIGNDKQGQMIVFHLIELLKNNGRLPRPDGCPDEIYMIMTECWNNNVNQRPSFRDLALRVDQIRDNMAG
JAK1, sequence (P23458 whole entry, species assumed): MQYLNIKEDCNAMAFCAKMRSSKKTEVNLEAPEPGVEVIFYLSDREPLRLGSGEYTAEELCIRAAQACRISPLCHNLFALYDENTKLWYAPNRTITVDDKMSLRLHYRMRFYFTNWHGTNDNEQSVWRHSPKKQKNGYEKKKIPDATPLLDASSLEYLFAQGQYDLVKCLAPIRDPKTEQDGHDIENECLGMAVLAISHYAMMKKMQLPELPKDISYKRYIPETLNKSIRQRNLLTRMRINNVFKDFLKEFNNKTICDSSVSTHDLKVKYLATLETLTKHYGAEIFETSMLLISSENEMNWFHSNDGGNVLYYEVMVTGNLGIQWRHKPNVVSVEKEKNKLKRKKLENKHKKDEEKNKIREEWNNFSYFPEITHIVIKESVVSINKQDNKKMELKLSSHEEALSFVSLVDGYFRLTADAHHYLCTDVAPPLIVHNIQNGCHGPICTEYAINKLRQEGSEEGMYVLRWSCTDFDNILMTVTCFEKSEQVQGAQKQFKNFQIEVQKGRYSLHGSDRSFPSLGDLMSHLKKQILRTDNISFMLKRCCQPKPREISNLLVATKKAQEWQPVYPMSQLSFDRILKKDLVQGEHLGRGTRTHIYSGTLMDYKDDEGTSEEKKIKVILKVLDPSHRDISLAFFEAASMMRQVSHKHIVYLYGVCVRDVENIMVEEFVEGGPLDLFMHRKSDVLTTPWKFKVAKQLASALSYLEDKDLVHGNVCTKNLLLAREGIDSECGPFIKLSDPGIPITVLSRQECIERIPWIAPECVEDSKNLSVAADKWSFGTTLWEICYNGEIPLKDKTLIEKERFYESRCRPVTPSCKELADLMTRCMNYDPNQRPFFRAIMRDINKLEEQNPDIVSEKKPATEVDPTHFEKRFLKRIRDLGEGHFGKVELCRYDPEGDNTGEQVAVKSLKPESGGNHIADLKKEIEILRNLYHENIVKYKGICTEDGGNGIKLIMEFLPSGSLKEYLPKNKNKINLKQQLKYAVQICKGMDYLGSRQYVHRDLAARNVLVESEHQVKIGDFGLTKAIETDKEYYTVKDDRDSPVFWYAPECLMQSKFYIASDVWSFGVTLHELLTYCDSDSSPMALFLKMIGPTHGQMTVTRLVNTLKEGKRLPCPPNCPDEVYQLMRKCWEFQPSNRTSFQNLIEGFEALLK

As to `Cc1cnc(Nc2cc(C#N)c3c(c2)COB3O)nc1N[C@H]1CCCC[C@@H]1C#N` (single isomer, unassigned) [Example 012a, 5-((4-(((trans)-2-cyanocyclohexyl)amino)-5-methylpyrimidin-2-yl)amino)-1-hydroxy-1,3-dihydrobenzo[c][1,2]oxaborole-7-carbonitrile], in data set [1], the “Dog LM QH” value was less than 19.9%. Moreover, the IC50 is 0.0024 µM in data set [2] (Table 3a, read-out: IC50 JAK2) and 0.0006 µM in data set [3] (Table 3a, read-out: IC50 JAK1).
On to `Cc1cc(Nc2ncc(Cl)c(N[C@H]3COCC[C@@H]3C#N)n2)cc2c1B(O)OC2` (single isomer, unassigned) [Example 041b, (trans)-3-[[5-chloro-2-[(1-hydroxy-7-methyl-3H-2,1-benzoxaborol-5-yl)amino]pyrimidin-4-yl]amino]tetrahydropyran-4-carbonitrile], for which the “Dog LM QH” value in data set [1] is recorded as less than 19.9%. For the same compound, the IC50 in data set [2] (IC50 JAK2, Table 3a) worked out at 0.134 µM; in data set [3] (IC50 JAK1, Table 3a) it was 0.0362 µM.
As to `Cc1cnc(Nc2cc(C)c3c(c2)COB3O)nc1N[C@@H]1CCCC[C@H]1C#N` (relative stereo) [Example 009, (trans)-2-((2-((1-hydroxy-7-methyl-1,3-dihydrobenzo[c][1,2]oxaborol-5-yl)amino)-5-methylpyrimidin-4-yl)amino)cyclohexane-1-carbonitrile], the “Dog LM QH” value in data set [1] is reported as less than 19.9%. Also, the 50% inhibitory concentration (IC50) in data set [2] (Table 3a, read-out: IC50 JAK2) worked out at 0.0138 µM; in data set [3] (Table 3a, read-out: IC50 JAK1), 0.0011 µM.
As for `Cc1cnc(Nc2ccc3c(c2)C(C(C)C)=CB(O)O3)nc1N[C@H]1COCC[C@@H]1C#N` (single isomer, unassigned) [Example 039b, (trans)-3-((2-((2-hydroxy-4-isopropyl-2H-benzo[e][1,2]oxaborinin-6-yl)amino)-5-methylpyrimidin-4-yl)amino)tetrahydro-2H-pyran-4-carbonitrile], in data set [1], the “Dog LM QH” value was 72.1%. Further, the IC50 in data set [2] (Table 3a, read-out: IC50 JAK2) was 2.04 µM; in data set [3] (Table 3a, read-out: IC50 JAK1), 0.216 µM.
Consider `COc1cc(Nc2ncc(C)c(N[C@H]3COCC[C@@H]3C#N)n2)cc2c1B(O)OC2` (single isomer, unassigned) [Example 044a, (trans)-3-((2-((1-hydroxy-7-methoxy-1,3-dihydrobenzo[c][1,2]oxaborol-5-yl)amino)-5-methylpyrimidin-4-yl)amino)tetrahydro-2H-pyran-4-carbonitrile], for which the “Dog LM QH” value in data set [1] is given as 34.9%. The IC50 came to 0.0008 µM in data set [2] (Table 3a, read-out: IC50 JAK2) and 0.0002 µM in data set [3] (Table 3a, read-out: IC50 JAK1).
As for `Cc1cnc(Nc2cc(C#N)c3c(c2)COB3O)nc1N[C@H]1CCCC[C@@H]1C#N` (single isomer, unassigned) [Example 012b, 5-((4-(((trans)-2-cyanocyclohexyl)amino)-5-methylpyrimidin-2-yl)amino)-1-hydroxy-1,3-dihydrobenzo[c][1,2]oxaborole-7-carbonitrile], the “Dog LM QH” value in data set [1] is reported as less than 19.9%. Further, the IC50 in data set [2] (Table 3a, read-out: IC50 JAK2) stood at 0.126 µM; in data set [3] (Table 3a, read-out: IC50 JAK1) it was 0.0082 µM.
Consider `Cc1cnc(Nc2cc(F)c3c(c2)C=CB(O)O3)nc1N[C@@H]1COCC[C@H]1C#N` (single isomer, unassigned) [Example 036b, (trans)-3-((2-((8-fluoro-2-hydroxy-2H-benzo[e][1,2]oxaborinin-6-yl)amino)-5-methylpyrimidin-4-yl)amino)tetrahydro-2H-pyran-4-carbonitrile], for which, in data set [1], the “Dog LM QH” value is 37.3%. Further, the IC50 turned out to be 0.102 µM in data set [2] (Table 3a, read-out: IC50 JAK2) and 0.0082 µM in data set [3] (Table 3a, read-out: IC50 JAK1).
For `Cc1cnc(Nc2cc3c(c(C4CC4)c2)B(O)OC3)nc1N[C@@H]1COCC[C@H]1C#N` (relative stereo) [Example 025, (trans)-3-[[2-[(7-cyclopropyl-1-hydroxy-3H-2,1-benzoxaborol-5-yl)amino]-5-methyl-pyrimidin-4-yl]amino]tetrahydropyran-4-carbonitrile] the same measures were less than 19.9%, 0.0242 µM and 0.0004 µM.
For `N#C[C@H]1CCOC[C@@H]1Nc1nc(Nc2cc3c(c(C(F)(F)F)c2)B(O)OC3)ncc1Cl` (single isomer, unassigned) [Example 042b, (trans)-3-((5-chloro-2-((1-hydroxy-7-(trifluoromethyl)-1,3-dihydrobenzo[c][1,2]oxaborol-5-yl)amino)pyrimidin-4-yl)amino)tetrahydro-2H-pyran-4-carbonitrile] the same measures were less than 19.9%, 0.69 µM and 0.0982 µM.
As for `Cc1cnc(Nc2ccc3c(c2)COB3O)nc1N[C@@H]1COCC[C@H]1C#N` (single isomer, unassigned) [Example 026b, (trans)-3-((2-((1-hydroxy-1,3-dihydrobenzo[c][1,2]oxaborol-5-yl)amino)-5-methylpyrimidin-4-yl)amino)tetrahydro-2H-pyran-4-carbonitrile], the “Dog LM QH” value in data set [1] was less than 19.9%. Further, the IC50 in data set [2] (Table 3a, read-out: IC50 JAK2) is 0.0953 µM; in data set [3] (Table 3a, read-out: IC50 JAK1), 0.0471 µM.
Consider `Cc1cnc(Nc2cc(C#N)c3c(c2)COB3O)nc1N[C@@H]1CCC[C@H]1C#N` (relative stereo) [Example 018, 5-((4-(((trans)-2-cyanocyclopentyl)amino)-5-methylpyrimidin-2-yl)amino)-1-hydroxy-1,3-dihydrobenzo[c][1,2]oxaborole-7-carbonitrile], for which, in data set [1], the “Dog LM QH” value is on record as less than 19.9%. Besides, the IC50 in data set [2] (Table 3a, read-out: IC50 JAK2) turned out to be 0.0104 µM; in data set [3] (Table 3a, read-out: IC50 JAK1), 0.0005 µM.
Regarding `Cc1cnc(Nc2cc3c(c(C(F)(F)F)c2)B(O)OC3)nc1N[C@H]1CCCC[C@@H]1C#N` (single isomer, unassigned) [Example 011b, (trans)-2-((2-((1-hydroxy-7-(trifluoromethyl)-1,3-dihydrobenzo[c][1,2]oxaborol-5-yl)amino)-5-methylpyrimidin-4-yl)amino)cyclohexane-1-carbonitrile], the “Dog LM QH” value in data set [1] is recorded as less than 19.9%. Besides, the IC50 in data set [2] (Table 3a, read-out: IC50 JAK2) was 0.197 µM; in data set [3] (Table 3a, read-out: IC50 JAK1), 0.01 µM.
Taken in the same sequence, the figures for `Cc1cnc(Nc2ccc3c(c2)OB(O)C=C3)nc1N[C@@H]1COCC[C@H]1C#N` (relative stereo) [Example 034, (trans)-3-[[2-[(2-hydroxy-1,2-benzoxaborinin-7-yl)amino]-5-methyl-pyrimidin-4-yl]amino]tetrahydropyran-4-carbonitrile] were 74.7%, 0.0337 µM and 0.0011 µM.
For `Cc1cnc(Nc2cc3c(c(C(F)(F)F)c2)B(O)OC3)nc1N[C@@H]1COCC[C@H]1C#N` (single isomer, unassigned) [Example 033b, (trans)-3-[[2-[[1-hydroxy-7-(trifluoromethyl)-3H-2,1-benzoxaborol-5-yl]amino]-5-methyl-pyrimidin-4-yl]amino]tetrahydropyran-4-carbonitrile] the same measures were 64.9%, 0.389 µM and 0.0163 µM.
With `Cc1cnc(Nc2cc(Cl)c3c(c2)C(C(C)C)=CB(O)O3)nc1N[C@H]1COCC[C@@H]1C#N` (single isomer, unassigned) [Example 040a, (trans)-3-((2-((8-chloro-2-hydroxy-4-isopropyl-2H-benzo[e][1,2]oxaborinin-6-yl)amino)-5-methylpyrimidin-4-yl)amino)tetrahydro-2H-pyran-4-carbonitrile], in data set [1], the “Dog LM QH” value is 32.9%. Also, the IC50 in data set [2] (Table 3a, read-out: IC50 JAK2) is more than 1 µM; in data set [3] (Table 3a, read-out: IC50 JAK1) it was more than 1 µM.
